Values of other authors, collected in patent US10653634B1, “Polymeric nanoparticulate formulation to enhance the oral bioavailability of dapoxetine” (King Abdulaziz University, priority 2019, dated 2020).
In brackets after ≈: the same amount, converted by molar mass.

Assays:
[1] = not given; remark: listed apart in the source

CN(C)[C@@H](CCOc1cccc2ccccc12)c1ccccc1 [DPX, (1S)—N,N-dimethyl-3-naphthalen-1-yloxy-1-phenylpropan-1-amine]
bioavailability after oral administration (mean): 42% | bioavailability after oral administration (variability): 15-76% | time to peak plasma concentration after oral administration: 60 to 80 min | pKa [1]: 8.6 | aqueous solubility ([1]; protonated DPX): 68 mg/mL (≈ 223 mM)
